Structures are written as SMILES.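 Interpolation was linear, between the two tested concentrations surrounding the appropriate level; five concentrations were tested over 48 hours in 96-well plates. Here, GI50 denotes the concentration required for 50% inhibition of growth. TGI denotes the concentration required for complete inhibition of growth.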 Bounds are passed on as bounds.

Experiment in all cases: NCI-60 cell line screen, 48 h
The subject of experiment [1] is KM12 colon.
Experiment [2] concerns MDA-MB-435.
Experiment [3] deals with MDA-N.
The test system of experiment [4] is NCI-H226 lung.
Experiment [5] concerns NCI/ADR-RES ovarian.
In experiment [6] the test system is SK-OV-3 ovarian.
For experiment [7], the system named is SN12C renal.
The test system of experiment [8] is HOP-62 NSCLC.
Experiment [9] concerns SF-539 CNS.

With `Nn1c(CCCCCCCCc2nnc(COc3c(O)ccc4ccccc34)n2N)nnc1COc1c(O)ccc2ccccc12`, the TGI in [1], in experiment [2], in experiment [3], in [4], in experiment [5] and in experiment [6] was over 100 µM in each case. This molecule also gave a TGI in experiment [7] of over 100 µM.

For `COc1ccc2c(c1)O/C(=C\c1cccc(OCC(=O)Nc3nc4c(s3)CCCC4)c1)C2=O`, the GI50 in experiment [8] is over 34 µM; in experiment [1], 10.4 µM; in [2], over 43.3 µM; in [4], over 100 µM; in [5], 60.8 µM; in experiment [9], 16.7 µM. Besides, the GI50 is over 72.6 µM in [6] and 4.78 µM in experiment [7]. For the same molecule, the TGI is over 55.4 µM in experiment [8]; over 100 µM in experiment [1]; over 100 µM in experiment [2]; over 100 µM in [4]; over 100 µM in [5]; 44.1 µM in [9]. Besides, the TGI in [6] and in experiment [7] was over 100 µM each time.

Take `CCOC1CC(=O)c2c(Br)sc(Br)c21` (configuration not stated): the TGI in experiment [8] is 38.2 µM; in experiment [1], 37.2 µM; in [2], 33.6 µM; in [3], 49.6 µM; in experiment [5] it was over 100 µM; in [9] it was 69.5 µM. Further, the TGI in experiment [6] stood at 30.4 µM; in [7], 58.4 µM.

Take `O=C(CN1CCCCC1)CC(O)(C(F)(F)F)C(F)(F)F`: the TGI in experiment [1], in [2], in experiment [3], in experiment [4], in experiment [5] and in experiment [9] was over 100 µM throughout. For the same molecule, the TGI in [6] is over 100 µM.

With `CCCCCCCCCC[C@H](O)[C@H]1CC[C@H]([C@H]2CC[C@H]([C@H](O)CC[C@H](O)CCCCCCC[C@@H](O)CC3=C[C@H](C)OC3=O)O2)O1`, the GI50 in experiment [1] was 38.1 µM; in [2] it was 40.3 µM; in experiment [3], 6.36 µM; in [4], over 100 µM; in [5], 16.5 µM. Besides, the TGI in experiment [1], in experiment [2], in experiment [3], in [4], in [5] and in [9] was over 100 µM each time. In experiment [7], the TGI was over 100 µM.

For `Oc1ccc(-c2nnc3sc(-c4ccc(F)cc4)nn23)cc1`, the GI50 was over 100 µM in experiment [1]; over 100 µM in [2]; 49.6 µM in experiment [4]; 43.6 µM in experiment [5]; 36.5 µM in experiment [9]; 34.9 µM in experiment [6]. In addition, the GI50 in experiment [7] is 42.5 µM. The TGI in experiment [1], in experiment [2], in [4], in experiment [5], in experiment [9] and in experiment [6] was over 100 µM in each case. This molecule also had a TGI in experiment [7] of over 100 µM.

Take `CC(=O)OC(C)c1cc2c(s1)C(=O)c1sccc1C2=O` (configuration not stated): the TGI was found to be 2.65 µM in experiment [8]; 3.36 µM in [1]; 0.0338 µM in [3]; 3.94 µM in experiment [4]; 5.08 µM in [5]; 0.689 µM in [9]. In addition, the results for the TGI in experiment [6] and in experiment [7] were 9.73 µM and 2.26 µM, respectively.

Take `COc1cc(C2c3cc4c(cc3OC(NN=C(C)C)C2C)OCO4)cc(OC)c1O` (configuration not stated): the TGI was over 100 µM in experiment [1]; 11.6 µM in experiment [3]; over 100 µM in experiment [4]; over 100 µM in experiment [5]; 56.1 µM in experiment [9]; over 100 µM in experiment [7].

Turning to `COc1cc(/C=C2\C(=O)N(C(=O)Cc3ccccc3)N=C2C)ccc1O`, the TGI in experiment [8], in experiment [1], in [4], in [9] and in experiment [7] was over 100 µM throughout.

Regarding `COc1ccc(/C(=N/O)c2ccccc2-c2nc3ccccc3c(=O)n2-c2ccc(S(=O)(=O)Nc3ncccn3)cc2)cc1C`, the TGI in experiment [8] was over 31.6 µM; in [1], over 31.6 µM; in experiment [2], 27.3 µM; in [3], over 31.6 µM; in experiment [5] it was over 31.6 µM; in [9], 27.2 µM. Besides, the TGI is 20.8 µM in [6] and over 31.6 µM in experiment [7].

Consider `O=C1CCC(=Nc2ccc(Cl)cc2)N1C(=O)COc1ccc(OCC(=O)N2C(=O)CSC2=Nc2ccc(Cl)cc2)cc1`, for which the TGI in [8], in [1], in [2], in [3], in experiment [4] and in experiment [5] was over 100 µM each time. For the same molecule, the TGI in [6] and in [7] was over 100 µM in each case.

`CC1(C)O[C@@H]2COC(=O)[C@@H]2O1`: the TGI in experiment [1], in [2], in experiment [3], in [4], in experiment [5] and in experiment [9] was over 100 µM each time. Besides, the TGI in experiment [6] and in experiment [7] was over 100 µM each time.

`OC[C@@H](O)[C@H]1NC[C@@H](O)[C@H]1O`: the TGI in [8], in [1], in [2], in experiment [3], in [9] and in experiment [6] was over 100 µM in each case. The molecule also displayed a TGI in [7] of over 100 µM.

Turning to `COc1cc2c(cc1OCCCCOc1cc(-c3ccc(F)cc3)nc(C)n1)N=C[C@@H]1CCCN1C2=O`, the TGI in experiment [8] is 3.43 µM; in experiment [1], 3.67 µM; in experiment [2], 1.42 µM; in experiment [4], 4.71 µM; in experiment [5], 2.12 µM; in [9], 2.31 µM. Besides, the TGI in experiment [6] came to 16.2 µM; in [7], 7.55 µM.

(Values after PubChem BioAssay (NCI).)
